# From patent publication US10428082B2, “Triazole derivatives of melampomagnolide B and methods of use thereof” (BioVentures, LLC, priority 2016, dated 2019)
# Tests used:
# NF-κB pathway = assay: NF-κB inhibition by Western blot, phosphorylation of the P65 subunit; assay type: cell-based
# Protocol: Also JVM 4-29 was evaluated for NF-κB inhibition by Western blot analysis; by determining its effect on the phosphorylation of the P65 subunit.
# HO-1 = assay: Induction of HO-1 by Western blot assay; assay type: cell-based
# [1] = tested on: primary AML cell line AML1; assay: Anti-leukemic activity, Annexin V/7-AAD flow cytometry; assay type: cell-based, human; details: for EC50: Homo sapiens, AML1, 24 h, 24 h of drug exposure, read-out: AML#1 (EC50)
# Protocol: (§1) The newly synthesized triazole derivatives of melampomagnolide B were screened for anti-leukemic activity against M9 ENL1 and primary AML cell lines; the latter were obtained with informed consent from human patients. Evaluations were performed after 24 h of drug exposure using flow cytometric analysis by labeling with Annexin V and 7-aminoactinomycin D (7-AAD) to delineate apoptotic cell populations. In all experiments PTL was included as a reference control.
# [2] = tested on: primary AML cell line AML2; assay: as above; assay type: cell-based, human; details: for EC50: Homo sapiens, 24 h, 24 h of drug exposure, read-out: AML#2 (EC50)
# Protocol: as §1
# OVCAR-4 = assay: NCI 60 growth inhibition; assay type: cell-based, human; details: Homo sapiens; OVCAR-4, Ovarian Cancer, Table 2
# SNB-75 = assay: NCI 60 growth inhibition; assay type: cell-based, human; details: Homo sapiens; SNB-75, CNS Cancer, Table 2
# HOP-92 = assay: NCI 60 growth inhibition; assay type: cell-based, human; details: Homo sapiens; HOP-92, Non-Small Cell Lung Cancer, Table 2
# A498 = assay: NCI 60 growth inhibition; assay type: cell-based, human; details: Homo sapiens; A498, Renal Cancer, Table 2
# EKVX = assay: NCI 60 growth inhibition; assay type: cell-based, human; details: Homo sapiens, Non-Small Cell Lung Cancer, Table 2
# SR = assay: NCI 60 growth inhibition; assay type: cell-based, human; details: Homo sapiens, Leukemia, Table 2
# HCT-15 = assay: NCI 60 growth inhibition; assay type: cell-based, human; details: Homo sapiens; HCT-15, Colon Cancer, Table 2
# MDA-MB-231/ATCC = assay: NCI 60 growth inhibition; assay type: cell-based, human; details: Homo sapiens, Breast Cancer, Table 2
# NCI-H226 = assay: NCI 60 growth inhibition; assay type: cell-based, human; details: Homo sapiens; NCI-H226, Non-Small Cell Lung Cancer, Table 2
# NCI-H460 = assay: NCI 60 growth inhibition; assay type: cell-based, human; details: Homo sapiens; NCI-H460, Non-Small Cell Lung Cancer, Table 2
# DU-145 = assay: NCI 60 growth inhibition; assay type: cell-based, human; details: Homo sapiens; DU-145, Prostate Cancer, Table 2
# UO-31 = assay: NCI 60 growth inhibition; assay type: cell-based, human; details: Homo sapiens; UO-31, Renal Cancer, Table 2
# OVCAR-3 = assay: NCI 60 growth inhibition; assay type: cell-based, human; details: Homo sapiens; OVCAR-3, Ovarian Cancer, Table 2
# NCI/ADR-RES = assay: NCI 60 growth inhibition; assay type: cell-based, human; details: Homo sapiens, Ovarian Cancer, Table 2
# HOP-62 = assay: NCI 60 growth inhibition; assay type: cell-based, human; details: Homo sapiens; HOP-62, Non-Small Cell Lung Cancer, Table 2
# SF-268 = assay: NCI 60 growth inhibition; assay type: cell-based, human; details: Homo sapiens; SF-268, CNS Cancer, Table 2
# OVCAR-8 = assay: NCI 60 growth inhibition; assay type: cell-based, human; details: Homo sapiens; OVCAR-8, Ovarian Cancer, Table 2
# SF-295 = assay: NCI 60 growth inhibition; assay type: cell-based, human; details: Homo sapiens; SF-295, CNS Cancer, Table 2
# KM12 = assay: NCI 60 growth inhibition; assay type: cell-based, human; details: Homo sapiens; KM12, Colon Cancer, Table 2
# 786-0 = assay: NCI 60 growth inhibition; assay type: cell-based, human; details: Homo sapiens; 786-0, Renal Cancer, Table 2
# SK-OV-3 = assay: NCI 60 growth inhibition; assay type: cell-based, human; details: Homo sapiens; SK-OV-3, Ovarian Cancer, Table 2
# RPMI-8226 = assay: NCI 60 growth inhibition; assay type: cell-based, human; details: Homo sapiens; RPMI-8226, Leukemia, Table 2
# U251 = assay: NCI 60 growth inhibition; assay type: cell-based, human; details: Homo sapiens, U-251; U251, CNS Cancer, Table 2
# HS 578T = assay: NCI 60 growth inhibition; assay type: cell-based, human; details: Homo sapiens, Breast Cancer, Table 2
# TK-10 = assay: NCI 60 growth inhibition; assay type: cell-based, human; details: Homo sapiens; TK-10, Renal Cancer, Table 2
Structure (SMILES),EC50 [1] [µM],EC50 [2] [µM],GI50 (OVCAR-4) [µM],GI50 (SNB-75) [µM],GI50 (HOP-92) [µM],GI50 (A498) [µM],GI50 (EKVX) [µM],GI50 (SR) [µM],GI50 (HCT-15) [µM],GI50 (MDA-MB-231/ATCC) [µM],GI50 (NCI-H226) [µM],GI50 (NCI-H460) [µM],GI50 (DU-145) [µM],GI50 (UO-31) [µM],GI50 (OVCAR-3) [µM],GI50 (NCI/ADR-RES) [µM],GI50 (HOP-62) [µM],GI50 (SF-268) [µM],GI50 (OVCAR-8) [µM],GI50 (SF-295) [µM],further results
"C=C1C(=O)O[C@H]2[C@H]1CC/C(Cn1cc(-c3cc(C(F)(F)F)cc(C(F)(F)F)c3)nn1)=C\CC[C@@]1(C)O[C@@H]21 [JVM 4-29, (1aR,7aS,10aS,10bS,E)-5-((4-(3,5-bis(Trifluoromethyl)phenyl)-1H-1,2,3-triazol-1-yl)methyl)-1a-methyl-8-methylene-2,3,6,7,7a,8,10a,10b-octahydrooxireno[2′,3′:9,10]cyclodeca[1,2-b]furan-9(1aH)-one]",0.4,0.7,0.5,1.26,0.34,0.43,1.5,0.1,0.19,0.33,1.65,1.22,0.72,0.38,0.15,1.05,1.56,1.08,0.88,1.19,inhibition of the NF-κB pathway compared to parthenolide (NF-κB pathway): significantly more potency as an inhibitor of the NF-κB pathway when compared to parthenolide; induction of HO-1 compared to PTL (HO-1): stronger induction of HO-1 when compared to PTL; fold more cytotoxic compared to DMAPT ([1]; primary cell line AML1): 36.7 fold; fold more potent anti-leukemic activity than PTL ([1]; primary cell line AML1): 32.7 fold; fold more potent than the MMB ([1]; primary cell line AML1): 51.2 fold; fold more cytotoxic compared to DMAPT ([2]; primary cell line AML2): 16.1 fold; fold more potent anti-leukemic activity than PTL ([2]; primary cell line AML2): 14.8 fold; fold more potent than the MMB ([2]; primary cell line AML2): 34.7 fold; GI50 (KM12): 1.04 µM; GI50 (786-0): 0.16 µM; GI50 (SK-OV-3): 1.86 µM; GI50 (RPMI-8226): 0.22 µM; GI50 (U251): 1.44 µM; GI50 (HS 578T): 1.03 µM
"C=C1C(=O)O[C@H]2[C@H]1CC/C(Cn1cc(-c3cccc(Cl)c3)nn1)=C\CC[C@@]1(C)O[C@@H]21 [JVM 4-25, (1aR,7aS,10aS,10bS,E)-5((4-(3-Chlorophenyl)-1H-1,2,3-triazol-1-yl)methyl)-1a-methyl-8-methylene-2,3,6,7,7a,8,10a,10b-octahydrooxireno[2′,3′:9,10]cyclodeca[1,2-b]furan-9(1aH)-one]",1,1.7,1.09,1.16,0.25,1.52,1.57,0.23,0.19,1.09,1.71,2.13,1,1.08,0.47,2.39,1.94,1.59,1.31,3.41,GI50 (TK-10): 0.99 µM; GI50 (KM12): 1.78 µM; GI50 (786-0): 0.5 µM; GI50 (SK-OV-3): 3.67 µM; GI50 (RPMI-8226): 0.5 µM; GI50 (U251): 1.61 µM; GI50 (HS 578T): 2.26 µM
"C=C1C(=O)O[C@H]2[C@H]1CC/C(Cn1cc(-c3ccc(OC)cc3)nn1)=C\CC[C@@]1(C)O[C@@H]21 [JVM 4-24, (1aR,7aS,10aS,10bS,E)-5((4-(4-Methoxyphenyl)-1H-1,2,3-triazol-1-yl)methyl)-1a-methyl-8-methylene-2,3,6,7,7a,8,10a,10b-octahydrooxireno[2′,3′:9,10]cyclodeca[1,2-b]furan-9(1aH)-one]",2,2.5,1.52,1.47,1.13,2.35,2.47,0.25,0.33,1.44,1.99,8.45,1.11,1.27,0.56,3.08,10.5,2.07,2.59,11,GI50 (TK-10): 1.42 µM; GI50 (KM12): 3.51 µM; GI50 (786-0): 1.24 µM; GI50 (SK-OV-3): 16.3 µM; GI50 (RPMI-8226): 1.87 µM; GI50 (U251): 9.45 µM; GI50 (HS 578T): 7.42 µM
